“Also recorded” adds a separate entry of the source.
Experiments:
primary mouse podocytes = assay: Western blot analysis of nephrin and podocin, primary mouse podocytes; format: cell-based; details: primary mouse cultures, FIG. 2
Description: Experiments were also performed on podocytes derived from C57/bl mice. Glomeruli were sieved and prepared as previously described. […] 61:40-50. Podocytes were grown on collagen 1 coated plates with MGEC-media containing 5% fetal bovine serum (FBS: Summit biotechnology, Ft. Collins, Colo., USA), penicillin (100 U/ml), streptomycin (100 μg/ml), and glutamine (2 mmol/L; all Irvine Scientific, Santa Ana, Calif., USA) at 37° C. in 95% air/5% CO2. Podocytes were identified by previously described criteria (Shankland et al. (1999) supra) and by confirming the presence of podocyte specific proteins—including WT-1, nephrin, podocin, and ezrin—by immunostaining.
(§1) Exposure ofpodocvtes to ATRA. Rat podocytes, mouse podocytes, and growth permissive HSMP were plated at a concentration of 15,000 cell/cm^2 in standard media and allowed to adhere overnight.

[1] = test system: Tg-26 HIV transgenic heterozygous mice; assay: Tg-26 HIV transgenic mice (HIV-associated nephropathy) in vivo
[2] = test system: C57BL6 mice with anti-glomerular antibody-mediated podocyte injury; assay: Anti-glomerular antibody model of podocyte injury: immunostaining of kidney tissue; format: in vivo, mouse; details: for PCNA staining (podocyte proliferation) vs control: FIG. 4; for WT-1 staining (podocyte number) vs control: P<0.001, FIG. 5
Description: Immunofluorescent staining of kidney tissue. Mouse kidney biopsies were fixed in methyl Carnoy's (MC) solution or snap frozen in liquid nitrogen for analysis of proliferating cell nuclear antigen (PCNA), WT-1, podocin, synaptopodin, podocalyxin, and nephrin in vivo following ATRA treatment in anti-glomerular disease. Sections (4 μm) were cut from paraffin embedded MC fixed tissue or from OCT embedded frozen tissue. Frozen sections were then fixed in 100% methanol at −20° C. Mouse monoclonal antibody to PCNA (Beckman Coulter Miami, Fla., USA) or rabbit polyclonal antibody to WT-1 were incubated on MC-fixed tissue, and rabbit polyclonal antibodies to podocin, nephrin, podocalyxin, and synaptopodin were incubated on frozen sections. Primary mouse antibody to PCNA was incubated with a peroxidase conjugated rat anti-mouse IgM antibody (Zymed Laboratories, Inc. So. San Francisco, Calif., USA); all other primary antibodies were incubated with biotinylayted goat anti-rabbit antibody followed by either avidin D conjugated horseradish peroxidase (WT-1) or avidin conjugated AlexaFluor. PCNA and WT-1 stains were visualized with diaminobenzidine (Sigma Chemicals, St. Louis, Mo., USA).
An antibody-mediated model of podocyte injury was induced in C57BL6 mice with a sheep anti-glomerular antibody (two doses of 0.3 ml/20 gm body weight) over two consecutive days. Kim et al. (1999) Kidney Int 55:2349-2361; and Ophascharoensuk et al. (1998) Kidney Int 54:416-425. After the induction of the anti-glomerular model, but before the development of proteinuria, mice were then divided into an experimental group that received daily injections of ATRA 16.6 mg/kg (IP), and a control group that received vehicle (corn oil). […] The podocyte specific proteins WT-1, nephrin, podocin, synaptopodin, were measured by immunostaining at each time point, as was the proliferation marker, PCNA (see above). Using proliferating cell nuclear antigen (PCNA) as a marker of proliferation and WT-1 as a marker for podocytes, the level of podocyte proliferation was determined.

[3] = test system: heat sensitive mouse podocytes; assay: MTT cell proliferation assay, heat sensitive mouse podocytes (HSMP), growth permissive; format: cell-based; details: heat sensitive mouse podocytes under growth permissive conditions; at higher concentrations than rat podocytes
Description: as §1

rat podocytes = assay: Immunofluorescent staining of cultured rat podocytes (nephrin, podocin)
transgenic podocytes [4] = assay: Immunostaining of HIV transgenic podocytes for podocyte and cell cycle proteins
transgenic podocytes [5] = assay: Direct visualization (sequential photographs) of plated podocytes; format: cell-based, mouse; details: addition of ATRA
Description: Cellular proliferation was also assessed through direct visualization of 10 cm plated cells at d 1, 2, 4, 6 and 8 growth restriction. Proliferation was assessed by the number of cells seen within a small circle marked on the plate. A total of four circles were marked and observed per plate. The circles were numbered #1-4 and photographed at the above time points. One exemplary circle was chosen per plate and followed through all time points. The four groups were compared at all time points.

[6] = test system: heat sensitive mouse podocytes; assay: Immunofluorescent staining of cultured HSMP (nephrin, podocin); details: 200 μM ATRA
podocytes = assay: Hoecht's Assay of apoptosis for dose selection; format: cell-based, mouse; details: 25 mM ATRA
Description: The dose of 25 mMol/ml ATRA was selected after exposing cells to varying mMol doses of ATRA (10, 25, 50, 75, 100) and then measuring apoptosis with the Hoecht's Assay according to the manufacturer's directions. Apoptosis was not increased at 25 mM.

normal mice = assay: Pilot study of adverse side effects in normal mice; format: in vivo, mouse; details: 16 mg/kg i.p. for 7 days
Description: Pilot studies were performed to determine if giving ATRA 16 mg/kg i.p. for 7 days caused adverse side effects in normal mice. […] To determine the effect of ATRA on podocytes in vivo, mice with experimental glomerular disease were given ATRA intraperitoneally (i.p.) on two consecutive days. […] Renal function was assessed by measuring proteinuria and BUN.

[7] = ATRA treated Tg mice (5 animals)
[8] = nephritic mice, days 5 and 14 after disease induction, vs control nephritic mice given vehicle
[9] = nephritic mice, vs control nephritic animals given vehicle
[10] = transgenic podocytes, day 7 of growth restriction

CC1=C(/C=C/C(C)=C/C=C/C(C)=C/C(=O)O)C(C)(C)CCC1 [ATRA, all-trans retinoic acid]
nephrin protein level (Western blot) (primary mouse podocytes; 1 μM ATRA): increased the protein levels | podocin protein level (Western blot) (primary mouse podocytes; 1 μM ATRA): increased the protein levels | nephrin protein level (Western blot) (primary mouse podocytes; 5 μM ATRA): increased the protein levels | podocin protein level (Western blot) (primary mouse podocytes; 5 μM ATRA): increased the protein levels | collapsed glomeruli [1, 7]: no collapsed glomeruli | glomeruli with 0-25% sclerosis [1, 7]: 4.8% | glomeruli with 25-50 sclerosis [1, 7]: 1.2% | glomeruli with 50-75% or 75-100% sclerosis [1, 7]: No glomeruli were seen | glomeruli with no sclerosis ([1]; ATRA treated Tg mice (5 animals), 50 glomeruli per tissue sample): 94% | segmental sclerosis vs carrier treated transgenic animals ([1]; Tg mice, 4 months of life): reduced the sclerosis by a statistically significant amount | serum BUN ([1]; the different groups): no significant difference | proteinuria vs carrier treated transgenic animals (Tg C) ([1]; transgenic mice, ATRA 16 mg/kg intraperitoneal three times a week): tended to have less proteinuria | significance of difference in proteinuria vs carrier treated animals ([1]; transgenic mice, all other time points): not significant | significance of difference in proteinuria vs carrier treated animals ([1]; transgenic mice, at 80 days): statistically significant | interstitial disease score (tubular dilatation) ([1]; two ATRA treated Tg animals): no tubular dilatation | number of cells that stained positive for PCNA vs normal ([2]; experimental (ATRA treated) mice, day 5, P<0.05 vs normal, FIG. 4 legend): increased | PCNA staining (podocyte proliferation) vs control ([2]; nephritic mice, day 7): did not have a statistically significant effect | WT-1 staining (podocyte number) vs control ([2]; nephritic mice, day 7): prevented the decrease in WT-1 staining; also recorded: prevented the decrease in podocyte number | PCNA staining (podocyte proliferation) vs control ([2]; nephritic mice, day 14): significantly reduced podocyte proliferation; also recorded: significantly reduced PCNA immunostaining | WT-1 staining (podocyte number) vs control ([2]; nephritic mice, day 14): prevented the decrease in WT-1 staining; also recorded: prevented the decrease in podocyte number | nephrin immunostaining in kidney [2, 8]: prevented the decrease in immunostaining | podocin immunostaining in kidney [2, 8]: prevented the decrease in immunostaining | synaptopodin immunostaining in kidney [2, 8]: prevented the decrease in immunostaining | CD2AP immunostaining in kidney [2, 9]: not different from control nephritic animals | p35 immunostaining in kidney [2, 9]: not different from control nephritic animals | MTT absorbance [3]: significantly reduced MTT absorbance | podocin immunostaining compared to control (rat podocytes; cultured rat podocytes, OptM ATRA): increased immunostaining | nephrin immunostaining compared to control cells exposed to vehicle (rat podocytes; undifferentiated and proliferating rat podocytes, 10 μM ATRA): nephrin immunostaining increased | cyclin A staining vs standard media (transgenic podocytes [4]; ATRA exposed group): decreased intensity of staining | cell number vs standard media (transgenic podocytes [4]; ATRA group, cyclin A staining): grossly decreased | WT-1 staining vs standard media (transgenic podocytes [4]; [10]): increased staining intensity | cd2ap staining vs transgenic podocytes in standard media (transgenic podocytes [4]; [10]): increased intensity of staining | cell size and cell number vs standard media (transgenic podocytes [4]; [10]): appeared larger and decreased in number; also recorded: increased cell size and decreased cell number | CD2AP staining vs standard media group (transgenic podocytes [4]; transgenic podocytes, day 14 of growth restriction): increased staining intensity | decrease in cell number (transgenic podocytes [4]; transgenic podocytes, day 14 time point): not as prominent | proliferation of transgenic podocytes (sequential photographs, 10 cm culture dishes) (transgenic podocytes [5]): attenuated | podocin immunostaining compared to control ([6]; HSMP): increased immunostaining | nephrin immunostaining compared to control cells exposed to vehicle ([6]; heat sensitive mouse podocytes): nephrin immunostaining increased | apoptosis (Hoecht's Assay) (podocytes): not increased | adverse side effects (normal mice): no weight loss, ruffled fur, withdrawal or diarrhea
